Structures are written as SMILES. pIC50: −log10 of the molar value. Counter-ions that a name gives are not always drawn.

These results are taken from patent publication USRE37556E1, “Superoxide radical inhibitor” (Otsuka Pharmaceutical Co., Ltd., priority 1990, dated 2002).

Data set [1] concerns human neutrophilic leukocytes. Put plainly: Inhibition of superoxide radical (O2-) generation in FMLP-stimulated human neutrophilic leukocytes (ferricytochrome C method). The data set is classed as cell-based. The note with it: O2- generation, 3x10^-7 M FMLP, cytochalasin B, 37° C., pH 7.4. The source says:
(1) Activity for inhibiting the generation of superoxide radical (O2^−) in human neutrophilic leukocytes
That is, a whole blood obtained from a healthy adult and treated by anticoagulation method was subjected to a dextranhypotonic treatment to obtain leukocyte cells. The leukocyte cells were then subjected to a density gradient ultracentrifugation by Ficoll-Paque to obtain a neutrophilic leukocyte fraction.
O2^− generation was examined by the ferricytochrome C method in accordance with the method of B. N. Cronstein et al. [Journal of Experimental Medicine, vol. […] Each test compound was dissolved in dimethyl sulfoxide (DMSO); the solution was added to neutrophilic leukocytes before the addition of FMLP; then, the neutrophilic leukocytes were pre-incubated at 37° C.

Setting [2] is: Homo sapiens, Leukocyte, pH 7.4, Table 15.

`COc1ccc(-c2nc(-c3ccc4c(c3)CCCN4)cs2)cc1OC.Cl` yielded a melting point of 156 to 158 °C. The same measure, in the same setting: the result for `COc1ccc(-c2nc(-c3cc(N)cc(N)c3)cs2)cc1OC.Cl.Cl` reads 198 to 200 °C; that for `CCOc1ccc(-c2nc(-c3ccc(O)c(CC)c3)c(CN(C)C)s2)cc1OCC.Cl.Cl`, 163 to 168 °C; that for `CCOc1ccc(-c2nc(C3=CCN(C)CC3)cs2)cc1OCC`, 81.2 to 83.6 °C.

`CCOc1ccc(-c2nc(-c3cccc(CN(C)C)n3)cs2)cc1OCC.Cl.Cl`: the melting point is 195 °C (dec.). Same read-out and setting: the figure for `CCOc1ccc(-c2nc(-c3ccc(NCCN4CCCCC4)c(C(=O)OC)c3)cs2)cc1OCC.Cl.Cl` is 93 to 94 °C. Compound `CCOc1ccc(-c2nc(-c3ccc(O[Si](C)(C)C(C)(C)C)c(CO)c3)cs2)cc1OCC` had a melting point of 101.3 to 103 °C. In data set [1] (setting [2]), `CCOc1ccc(-c2nc(-c3ccc(O)c(C(=O)OCCN(C)C)c3)cs2)cc1OCC` [compound 118, 2-(3,4-Diethoxyphenyl)-4-[4-hydroxy-3-(2-dimethylaminoethoxycarbonyl)phenyl]thiazole trihydrochloride] gave a pIC50 of 6.25.

On to `CCOc1ccc(-c2nc(-c3ccc(C(=O)O)[nH]3)cs2)cc1OCC` [compound 119, 2-(3,4-Diethoxyphenyl)-4-(2-carboxy-5-pyrrolyl)-thiazole], for which the pIC50 in data set [1] (setting [2]) was 7.62. On the same count and under the same terms, the result for `CCCCCCCCCOC(=O)c1cc(-c2csc(-c3ccc(OCC)c(OCC)c3)n2)ccc1O` [compound 120, 2-(3,4-Diethoxyphenyl)-4-(4-hydroxy-3-n-nonyloxy-carbonylphenyl)thiazole] reads 6.31. On the same count and under the same terms, the figure for `CCOc1ccc(-c2nc(-c3ccc(C(=O)OC)o3)cs2)cc1OCC` [compound 121, 2-(3,4-Diethoxyphenyl)-4-(2-methoxycarbonyl-5-furyl)thiazole] is 7.42; for `CCOc1ccc(-c2nc(-c3ccc(C(=O)O)o3)cs2)cc1OCC` [compound 122, 2-(3,4-Diethoxyphenyl)-4-(2-carboxy-5-furyl)-thiazole] it is 7.72; for `CCOc1ccc(-c2nc(-c3cccc(C(=O)N(C)C)n3)cs2)cc1OCC` [compound 123, 2-(3,4-Diethoxyphenyl)-4-(2-dimethylaminocarbonyl-6-pyridyl)thiazole] it is 6.42. The compound `CCOc1ccc(-c2nc(-c3ccc(OC)c(C(=O)O)c3)cs2)cc1OCC` [compound 125] showed a pIC50 in data set [1] (Table 15) of 6.72. As for `CCOc1ccc(-c2nc(-c3cc(CC)c(O)c(C(=O)O)c3)cs2)cc1OCC` [compound 126, 2-(3,4-Diethoxyphenyl)-4-(3-carboxy-4-hydroxy-5-ethylphenyl)thiazole], the pIC50 in data set [1] (setting [2]) is 7.85. `CCOc1ccc(-c2nc(-c3cccc(CO)n3)cs2)cc1OCC` [compound 127] had a pIC50 in data set [1] (Table 15) of 7.70. Still for that read-out and setting: the figure for `CCOc1ccc(-c2nc(-c3cccc(C(=O)N4CCN(C)CC4)n3)cs2)cc1OCC` [compound 128] is 6.24.

For `CCOc1ccc(-c2nc(-c3ccc(C(=O)O)s3)cs2)cc1OCC` [compound 129, 2-(3,4-Diethoxyphenyl)-4-(2-carboxy-5-thienyl)-thiazole], in data set [1] (setting [2]), the pIC50 is 7.09. Still for that read-out and setting: the figure for `CCOc1ccc(-c2nc(-c3cc(C(=O)O)c4oc(C)cc4c3)cs2)cc1OCC` [compound 130, 2-(3,4-Diethoxyphenyl)-4-(2-methyl-7-carboxy-5-benzofuryl)thiazole] is 6.62. On the same count and under the same terms, the figure for `CCOC(=O)c1csc(-c2csc(-c3ccc(OCC)c(OCC)c3)n2)n1` [compound 131, 2-(3,4-Diethoxyphenyl)-4-(4-ethoxycarbonyl-2-thiazolyl)thiazole] is 6.72. Still for that read-out and setting: the result for `CCOc1ccc(-c2nc(-c3nc(C(=O)O)cs3)cs2)cc1OCC` [compound 132, 2-(3,4-Diethoxyphenyl)-4-(4-carboxy-2-thiazolyl)-thiazole] reads 7.30; that for `CCOc1ccc(-c2nc(-c3ccc(O)c(CO)c3)cs2)cc1OCC` [compound 133, 2-(3,4-Diethoxyphenyl)-4-(4-hydroxy-3-hydroxymethylphenyl)thiazole], 8.04. In data set [1] (setting [2]), `CCOc1ccc(-c2nc(-c3ccc(OCC)c(C(=O)O)c3)cs2)cc1OCC` [compound 134, 2-(3,4-Diethoxyphenyl)-4-(4-ethoxy-3-carboxyphenyl)thiazole] gave a pIC50 of 6.89. The same measure, in the same setting: the figure for `CCOc1ccc(-c2nc(-c3cncc(C(=O)O)c3)cs2)cc1OCC` [compound 135, 2-(3,4-Diethoxyphenyl)-4-(3-carboxy-5-pyridyl)-thiazole hydrochloride] is 7.46. In data set [1] (setting [2]), `CCCCOC(=O)c1cc(-c2csc(-c3ccc(OCC)c(OCC)c3)n2)ccc1OCCCC` [compound 136, 2-(3,4-Diethoxyphenyl)-4-(3-n-butoxycarbonyl-4-n-butoxyphenyl)thiazole] had a pIC50 of 6.89.

For `CCCCOc1ccc(-c2csc(-c3ccc(OCC)c(OCC)c3)n2)cc1C(=O)O` [compound 137, 2-(3,4-Diethoxyphenyl)-4-(3-carboxy-4-n-butoxyphenyl)thiazole], the pIC50 in data set [1] (setting [2]) was 6.96. Still for that read-out and setting: the figure for `CCCOc1ccc(-c2csc(-c3ccc(OCC)c(OCC)c3)n2)cc1C(=O)O` [compound 138, 2-(3,4-Diethoxyphenyl)-4-(3-carboxy-4-n-propoxyphenyl)thiazole] is 6.85.

`CCOc1ccc(-c2nc(-c3cc4c(c(C(=O)O)c3)OC(C)(C)C4)cs2)cc1OCC` [compound 139, 2-(3,4-Diethoxyphenyl)-4-(2,2-dimethyl-7-carboxy-2,3-dihydrobenzofuran-5-yl)thiazole] showed a pIC50 in data set [1] (setting [2]) of 7.00. On the same count and under the same terms, the figure for `CC=Cc1cc(-c2csc(-c3ccc(OCC)c(OCC)c3)n2)cc(C(=O)O)c1O` [compound 140, 2-(3,4-Diethoxyphenyl)-4-[3-carboxy-4-hydroxy-5-(1-propenyl)phenyl]thiazole] is 8.33. In data set [1] (setting [2]), `CCOc1ccc(-c2nc(-c3cnc(C)c(C(=O)O)c3)cs2)cc1OCC` [compound 141, 2-(3,4-Diethoxyphenyl)-4-(2-methyl-3-carboxy-5-pyridyl)thiazole] showed a pIC50 of 7.03. Same read-out and setting: the figure for `CCOc1ccc(-c2nc(-c3cc(C=O)c(O)c(C(=O)O)c3)cs2)cc1OCC` [compound 142, 2-(3,4-Diethoxyphenyl)-4-(3-carboxy-4-hydroxy-5-formylphenyl)thiazole] is 6.92.

As for `CCOc1ccc(-c2nc(-c3ccc(C(=O)O)cn3)cs2)cc1OCC` [compound 143, 2-(3,4-Diethoxyphenyl)-4-(3-carboxy-6-pyridyl)-thiazole], in data set [1] (setting [2]), the pIC50 was 6.57. The same measure, in the same setting: the figure for `CCOc1ccc(-c2nc(-c3ccc(C(=O)O)nc3)cs2)cc1OCC` [compound 144, 2-(3,4-Diethoxyphenyl)-4-(2-carboxy-5-pyridyl)-thiazole] is 7.46; for `CCOc1ccc(-c2nc(-c3cc(Br)c(O)c(C(=O)O)c3)cs2)cc1OCC` [compound 145, 2-(3,4-Diethoxyphenyl)-4-(3-carboxy-4-hydroxy-5-bromophenyl)thiazole] it is 6.96; for `CCOc1ccc(-c2nc(-c3ccc(N(C)C)c(C(=O)O)c3)cs2)cc1OCC` [compound 146, 2-(3,4-Diethoxyphenyl)-4-(3-carboxy-4-dimethylaminophenyl)thiazole] it is 6.96.

In data set [1] (setting [2]), `C=Cc1cc(-c2csc(-c3ccc(OCC)c(OCC)c3)n2)cc(C(=O)O)c1O` [compound 147, 2-(3,4-Diethoxyphenyl)-4-(3-carboxy-4-hydroxy-5-vinylphenyl)thiazole] gave a pIC50 of 8.00.
